Among the data in patent publication US20090093454A1, “Chemical Compounds” (priority 2005, published 2009) are IC50 values, retold here.

This test relates to HIV-1. Description: HIV infectivity assay (Table 2, strain not given). Type of test: cell-based. Conditions: Human immunodeficiency virus 1, read-out: Activity Level. The protocol:
Compounds were profiled against two HIV-1 viruses, the M-tropic (CCR5 utilizing) Ba-L strain and the T-tropic (CXCR4 utilizing) IIIB strain. Both viruses were propagated in human peripheral blood lymphocytes. Compounds were tested for there ability to block infection of the HOS cell line (expressing hCXCR4/hCCR5/hCD4/pHIV-LTR-luciferase) by either HIV-1 Ba-L or HIV-1, IIIB. Compound cytotoxicity was also examined in the absence of virus addition.
HOS cells (expressing hCXCR4/hCCR5/hCD4/pHIV-LTR-luciferase) were harvested and diluted in Dulbeccos modified Eagles media supplemented with 2% FCS and non-essential amino acid to a concentration of 60,000 cells/ml. The cells were plated into 96-well plates (100 ul per well) and the plates were placed in a tissue culture incubator (37° C.; 5% CO2/95% air) for a period of 24 h.
Subsequently, 50 ul of the desired drug solution (4 times the final concentration) was added to each well and the plates were returned to the tissue culture incubator (37° C.; 5% CO2/95% air) for 1 h. Following this incubation 50 ul of diluted virus was added to each well (approximately 2 million RLU per well of virus). The plates were returned to the tissue culture incubator (37° C.; 5% CO2/95% air) and were incubated for a further 96 h.
Following this incubation the endpoint for the virally infected cultures was quantified following addition of Steady-Glo Luciferase assay system reagent (Promega, Madison, Wis.). Cell viability or non-infected cultures was measured using a CellTiter-Glo luminescent cell viability assay system (Promega, Madison, Wis.). All luminescent readouts are performed on a Topcount luminescence detector (Packard, Meridien, Conn.).
Compounds were profiled against two HIV-1 viruses, the M-tropic (CCR5 utilizing) Ba-L strain and the T-tropic (CXCR4 utilizing) IIIB strain. Ba-L was propagated in either peripheral blood lymphocytes or SupT1/CCR5+/CXCR4+ cells. IIIB was propagated in peripheral blood lymphocytes. Compounds were tested for their ability to block infection of the HOS cell line (expressing hCXCR4/hCCR5/hCD4/pHIV-LTR-luciferase) by either HIV-1 Ba-L or HIV-1, IIIB. Compound cytotoxicity was also examined in the absence of virus addition.
HOS cells (expressing hCXCR4/hCCR5/hCD4/pHIV-LTR-luciferase) were harvested and diluted in Dulbeccos modified Eagles media supplemented with 2% FCS to a concentration of 120,000 cells/ml. The cells were plated into 96-well plates (50 μl per well) and the plates were placed in a tissue culture incubator (370° C.; 5% CO2/95% air) for a period of 24 h.
Subsequently, 50 μl of the desired drug solution (2 times the final concentration) was added to each well and the plates were returned to the tissue culture incubator (370° C.; 5% CO2/95% air) for 1 h. Following this incubation, 60 μl of diluted virus (4 times the final concentration) was added to 60 μl of 2× the final desired concentration of the compound and 100 μl of this compound/virus mix was added to each well (approximately 2 million RLU per well of virus). The plates were returned to the tissue culture incubator (370° C.; 5% CO2/95% air) and were incubated for a further 96 h.

Structures are written as SMILES.

`c1cnc2c(c1)CC[C@@H]1CCCN(Cc3cn4c(N5CCC(C6CCNCC6)CC5)cccc4n3)[C@H]21` [Example 76a, (4aR,10bS)-1-{[5-(4,4′-bipiperidin-1-yl)imidazo[1,2-a]pyridin-2-yl]methyl}-1,2,3,4,4a,5,6,10b-octahydro-1,10-phenanthroline]: the IC50 was in the range of 100 to 500 nM.

As to `CN(C)C(=O)CN1CCN(c2cccc3nc(CN4CCC[C@H]5CCc6cccnc6[C@H]54)cn23)CC1` [Example 102, 2-(4-{2-[(4aR,10bS)-3,4,4a,5,6,10b-hexahydro-1,10-phenanthrolin-1(2H)-ylmethyl]imidazo[1,2-a]pyridin-5-yl}-1-piperazinyl)-N,N-dimethylacetamide], the IC50 is under 100 nM. On to `CCN(CC)Cc1c(CN2CCC[C@H]3CCc4cccnc4[C@H]32)nc2cccc(N3CCN(C)CC3)n12` [Example 55, N-ethyl-N-{[2-[(4aR,10bS)-3,4,4a,5,6,10b-hexahydro-1,10-phenanthrolin-1(2H)-ylmethyl]-5-(4-methyl-1-piperazinyl)imidazo[1,2-a]pyridin-3-yl]methyl}ethanamine], for which the IC50 was under 100 nM. The same measure for `c1cnc2c(c1)CC[C@H]1CCN(Cc3nc4ccccc4n3Cc3nc4ccccc4[nH]3)[C@H]21` (racemic) [Example 131, (trans) 1-{[1-(1H-benzimidazol-2-ylmethyl)-1H-benzimidazol-2-yl]methyl}-2,3,3a,4,5,9b-hexahydro-1H-pyrrolo[3,2-h]quinoline]: 500 to 10000 nM; for `c1cnc2c(c1)CC[C@@H]1CCCN(Cc3cn4c(N5CCN6CCC[C@H]6C5)cccc4n3)[C@H]21` [Example 106, (4aR,10bS)-1-({5-[(8aS)-hexahydropyrrolo[1,2-a]pyrazin-2(1H)-yl]imidazo[1,2-a]pyridin-2-yl}methyl)-1,2,3,4,4a,5,6,10b-octahydro-1,10-phenanthroline]: under 100 nM. For the molecule `c1cnc2c(c1)CC[C@@H]1CCCN(Cc3cn4c(N5CCC(N6CCCCC6)CC5)cccc4n3)[C@H]21` [Example 71, (4aR,10bS)-1-{[5-(1,4′-bipiperidin-1′-yl)imidazo[1,2-a]pyridin-2-yl]methyl}-1,2,3,4,4a,5,6,10b-octahydro-1,10-phenanthroline], the IC50 was under 100 nM. Then `c1cnc2c(c1)CC[C@@H]1CCCN(Cc3cn4c(NC[C@@H]5CCCNC5)cccc4n3)[C@H]21` [Example 113, 2-[(4aR,10bS)-3,4,4a,5,6,10b-hexahydro-1,10-phenanthrolin-1(2H)-ylmethyl]-N-[(3R)-3-piperidinylmethyl]imidazo[1,2-a]pyridin-5-amine], with under 100 nM; and `CNC1CCN(c2cccc3nc(CN4CCC[C@H]5CCc6cccnc6[C@H]54)cn23)C1` (stereo partly drawn) [Example 95, 1-{2-[(4aR,10bS)-3,4,4a,5,6,10b-hexahydro-1,10-phenanthrolin-1(2H)-ylmethyl]imidazo[1,2-a]pyridin-5-yl}-N-methyl-3-pyrrolidinamine], with under 100 nM. Then `CCN1CCN(c2cccc3nc(CN4CCC[C@H]5CCc6cccnc6[C@H]54)cn23)CC1` [Example 73, (4aR,10bS)-1-{[5-(4-ethyl-1-piperazinyl)imidazo[1,2-a]pyridin-2-yl]methyl}-1,2,3,4,4a,5,6,10b-octahydro-1,10-phenanthroline], with under 100 nM; and `CN1CCC(N(C)c2cccc3nc(CN4CCC[C@H]5CCc6cccnc6[C@H]54)cn23)C1` (stereo partly drawn) [Example 75, 2-[(4aR,10bS)-3,4,4a,5,6,10b-hexahydro-1,10-phenanthrolin-1(2H)-ylmethyl]-N-methyl-N-(1-methyl-3-pyrrolidinyl)imidazo[1,2-a]pyridin-5-amine], with under 100 nM; and `NCCCCn1c(CN2CC[C@@H]3CCc4cccnc4[C@H]32)nc2ccccc21` (racemic) [Example 130, (trans) 4-[2-(2,3,3a,4,5,9b-hexahydro-1H-pyrrolo[3,2-h]quinolin-1-ylmethyl)-1H-benzimidazol-1-yl]-1-butanamine], with 100 to 500 nM.
